{"source": "patent US8742129B2", "about": "“Crystalline forms of febuxostat” (Teva Pharmaceuticals Industries Ltd., priority 2009, dated 2014)", "test": "Solubility in ethanol of crystalline forms", "format": "physicochemical", "details": "compared to other crystalline forms", "data": [{"smiles": "Cc1nc(-c2ccc(OCC(C)C)c(C#N)c2)sc1C(=O)O", "note": "[Febuxostat form F10, 2-(3-cyano-4-isobutyloxyphenyl)-4-methylthiazole-5-carboxylic acid]", "values": [{"measurement": "solubility in ethanol", "value": "better solubility in ethanol compared to other crystalline forms"}]}]}
